Experimental data: patent publication US7538241B2, “Hsp90 family protein inhibitors” (Kyowa Hakko Kogyo Co., Ltd., priority 2003, dated 2009)

What follows are compounds tested on human mammary cancer-derived KPL-4 cells (assay: Cell growth inhibition test with KPL-4 cells (WST-1)). Details: KPL4, 72 hours, read-out: 50% growth inhibition concentration (GI50).
Format: cell-based
Protocol: In a 96-well plate (Nunc), human mammary cancer-derived KPL-4 cells were sown in an amount of 2000 cells/well, and pre-incubated in 10% fetal calf serum (FCS)-containing Dulbecco Modified Eagle Medium (DMEM) (incubation medium) in a 5% carbon dioxide incubator at 37° C. for 24 hours. A dimethylsulfoxide (DMSO) solution of a test compound controlled at 10 mmol/L was stepwise diluted with the incubation medium, and added to each well in a total amount of 100 μL/well, and incubated in the 5% carbon dioxide incubator at 37° C. for 72 hours. After the incubation, WST-1 {4-[3-(4-Iodophenyl)-2-(4-nitrophenyl)-2H-5-tetrazolio]-1,3-benzene disulfonate}-labeled mixture (Rosh Diagnostic) diluted 2-fold with the incubation medium was added thereto in an amount of 20 μL/well, and incubated in the 5% carbon dioxide incubator at 37° C. for 1 hour. Using a microplate spectrophotometer (Biorad's Model 550), the absorbance at 450 nm and 655 nm of each well was measured. The cell growth inhibition activity of the test compound was indicated by the 50% growth inhibition concentration (GI50) thereof. A method of calculating GI50 is described. The absorbance at 655 nm of each well was subtracted from the absorbance at 450 nm thereof to give a value (absorbance difference). The absorbance difference obtained with the cells without being treated with the test compound was taken as 100%, and this was compared with the absorbance difference obtained with the cells treated with the test compound to give the concentration of the compound for 50% cell growth inhibition, and this is referred to as GI50.

GI50 [µM] | SMILES
≤ 50 | COC(=O)Cc1cc(O)cc(O)c1-c1ccccc1 [Compound 1, Methyl 3,5-dihydroxy-2-phenylphenylacetate]
≤ 50 | COC(=O)Cc1cc(O)cc(O)c1-c1cccc(C=NO)c1 [Compound 3, Methyl 3,5-dihydroxy-2-[3-(hydroxyiminomethyl)phenyl]phenylacetate]
≤ 50 | COC(=O)Cc1cc(O)cc(O)c1-c1cccc(C(C)=O)c1 [Compound 8, Methyl 2-(3-acetylphenyl)-3,5-dihydroxyphenylacetate]
≤ 50 | COC(=O)Cc1c(Br)c(O)cc(O)c1-c1ccccc1 [Compound 10, Methyl 2-bromo-3,5-dihydroxy-6-phenylphenylacetate]
≤ 50 | COC(=O)Cc1c(-c2ccccc2)c(O)cc(O)c1-c1ccccc1 [Compound 11, Methyl 3,5-dihydroxy-2,6-diphenylphenylacetate]
≤ 50 | COC(=O)Cc1c(I)c(O)cc(O)c1-c1ccccc1 [Compound 13, Methyl 3,5-dihydroxy-2-iodo-6-phenylphenylacetate]
≤ 50 | O=C(Cc1c(Br)c(O)cc(O)c1-c1ccccc1)NCc1cccnc1 [Compound 17, 2-(2-Bromo-3,5-dihydroxy-6-phenylphenyl)-N-(pyridin-3-ylmethyl)acetamide]
≤ 50 | O=C(Cc1c(Br)c(O)cc(O)c1-c1ccccc1)NC1CCN(Cc2ccccc2)CC1 [Compound 18, N-(1-benzylpiperidin-4-yl)-2-(2-bromo-3,5-dihydroxy-6-phenylphenyl)acetamide]
≤ 50 | COCCNC(=O)Cc1c(Br)c(O)cc(O)c1-c1ccccc1 [Compound 23, 2-(2-Bromo-3,5-dihydroxy-6-phenylphenyl)-N-(2-methoxyethyl)acetamide]
≤ 50 | Oc1cc(O)c(-c2ccccc2)c(COCc2ccccc2)c1Br [Compound 25, 5-(Benzyloxymethyl)-6-bromo-4-phenylbenzene-1,3-diol]
≤ 50 | O=C(Cc1c(Br)c(O)cc(O)c1-c1ccccc1)N1CCOCC1 [Compound 35, 2-(2-Bromo-3,5-dihydroxy-6-phenylphenyl)-1-morpholinoethanone]
≤ 50 | CCCN(C)C(=O)Cc1c(Br)c(O)cc(O)c1-c1ccccc1 [Compound 36, 2-(2-Bromo-3,5-dihydroxy-6-phenylphenyl)-N-methyl-N-propylacetamide]
≤ 50 | N#Cc1ccccc1N1CCN(C(=O)Cc2c(Br)c(O)cc(O)c2-c2ccccc2)CC1 [Compound 38, 2-(2-Bromo-3,5-dihydroxy-6-phenylphenyl)-1-[4-(2-cyanophenyl)piperazin-1-yl]ethanone]
≤ 50 | NC(=O)Cc1c(Br)c(O)cc(O)c1-c1ccccc1 [Compound 41, 2-(2-Bromo-3,5-dihydroxy-6-phenylphenyl)acetamide]
≤ 50 | CN(C)C(=O)Cc1c(Br)c(O)cc(O)c1-c1ccccc1 [Compound 43, 2-(2-Bromo-3,5-dihydroxy-6-phenylphenyl)-N,N-dimethylacetamide]
≤ 50 | COC(=O)c1c(Br)c(O)cc(O)c1-c1ccccc1 [Compound 47, Methyl 2-bromo-3,5-dihydroxy-6-phenylbenzoate]
≤ 50 | O=C(NCc1ccccc1)c1c(Br)c(O)cc(O)c1-c1ccccc1 [Compound 51, N-benzyl-2-bromo-3,5-dihydroxy-6-phenylbenzamide]
≤ 50 | O=C(Cc1c(Br)c(O)cc(O)c1-c1ccccc1)NCc1ccncc1 [Compound 54, 2-(2-Bromo-3,5-dihydroxy-6-phenylphenyl)-N-(pyridin-4-ylmethyl)acetamide]
≤ 50 | COC(=O)Cc1c(C=O)c(O)cc(O)c1-c1ccccc1 [Compound 55, Methyl 2-formyl-3,5-dihydroxy-6-phenylphenylacetate]
≤ 50 | COC(=O)Cc1c(C)c(O)cc(O)c1-c1ccccc1 [Compound 56, Methyl 3,5-dihydroxy-6-methyl-2-phenylphenylacetate]
≤ 50 | O=C(c1ccccc1)c1c(Br)c(O)cc(O)c1-c1ccccc1 [Compound 58, 2-Bromo-3,5-dihydroxy-6-phenylphenyl phenyl ketone]
≤ 50 | COC(=O)C=Cc1c(Br)c(O)cc(O)c1-c1ccccc1 [Compound 59, Methyl 3-(2-bromo-3,5-dihydroxy-6-phenylphenyl)acrylate]
≤ 50 | CC(=O)C=Cc1c(Br)c(O)cc(O)c1-c1ccccc1 [Compound 60, 4-(2-Bromo-3,5-dihydroxy-6-phenylphenyl)but-3-en-2-one]
≤ 50 | COc1c(Br)c(O)cc(O)c1-c1ccccc1 [Compound 61, 6-Bromo-5-methoxy-4-phenylbenzene-1,3-diol]

GI50 [µM] | SMILES
≤ 50 | OCCc1c(Br)c(O)cc(O)c1-c1ccccc1 [Compound 62, 6-Bromo-5-(2-hydroxyethyl)-4-phenylbenzene-1,3-diol]
≤ 50 | COCCc1c(Br)c(O)cc(O)c1-c1ccccc1 [Compound 64, 6-Bromo-5-(2-methoxyethyl)-4-phenylbenzene-1,3-diol]
≤ 50 | CC(=O)Cc1c(Br)c(O)cc(O)c1-c1ccccc1 [Compound 65, 1-(2-Bromo-3,5-dihydroxy-6-phenylphenyl)propan-2-one]
≤ 50 | COC(=O)Cc1c(Cc2ccccc2)c(O)cc(O)c1-c1ccccc1 [Compound 70, Methyl 2-benzyl-3,5-dihydroxy-6-phenylphenylacetate]
≤ 50 | COCCOCc1c(Br)c(O)cc(O)c1-c1ccccc1 [Compound 71, 6-Bromo-5-[(2-methoxyethoxy)methyl]-4-phenylbenzene-1,3-diol]
≤ 50 | COCCOCCOCc1c(Br)c(O)cc(O)c1-c1ccccc1 [Compound 72, 6-Bromo-5-[2-(2-methoxyethoxy)ethoxymethyl]-4-phenylbenzene-1,3-diol]
≤ 50 | COC(=O)Cc1cc(O)cc(O)c1-c1ccc(C(C)=O)cc1 [Compound 73, Methyl 2-(4-acetylphenyl)-3,5-dihydroxyphenylacetate]
≤ 50 | COC(=O)Cc1cc(O)cc(O)c1-c1cccc(OC(F)(F)F)c1 [Compound 74, Methyl 3,5-dihydroxy-2-[3-(trifluoromethoxy)phenyl]phenylacetate]
≤ 50 | COC(=O)Cc1cc(O)cc(O)c1-c1ccc(OC(F)(F)F)cc1 [Compound 75, Methyl 3,5-dihydroxy-2-[4-(trifluoromethoxy)phenyl]phenylacetate]
≤ 50 | COC(=O)Cc1cc(O)cc(O)c1-c1cccc(CO)c1 [Compound 76, Methyl 3,5-dihydroxy-2-[3-(hydroxymethyl)phenyl]phenylacetate]
≤ 50 | COC(=O)Cc1cc(O)cc(O)c1-c1cccc([N+](=O)[O-])c1 [Compound 77, Methyl 3,5-dihydroxy-2-(3-nitrophenyl)phenylacetate]
≤ 50 | COC(=O)Cc1cc(O)cc(O)c1-c1cccc(C#N)c1 [Compound 78, Methyl 2-(3-cyanophenyl)-3,5-dihydroxyphenylacetate]
≤ 50 | COC(=O)Cc1cc(O)cc(O)c1-c1ccc(-c2ccccc2)cc1 [Compound 79, Methyl 3,5-dihydroxy-2-(4-phenylphenyl)phenylacetate]
≤ 50 | COC(=O)Cc1cc(O)cc(O)c1-c1ccc(Oc2ccccc2)cc1 [Compound 80, Methyl 3,5-dihydroxy-2-(4-phenoxyphenyl)phenylacetate]
≤ 50 | COC(=O)Cc1cc(O)cc(O)c1-c1cccc(OC)c1 [Compound 81, Methyl 3,5-dihydroxy-2-(3-methoxyphenyl)phenylacetate]
≤ 50 | COC(=O)Cc1cc(O)cc(O)c1-c1ccc(OC)cc1 [Compound 82, Methyl 3,5-dihydroxy-2-(4-methoxyphenyl)phenylacetate]
≤ 50 | Oc1cc(O)c(-c2ccccc2)c(COCC2CCCO2)c1Br (centres unmarked) [Compound 85, 6-Bromo-5-[(oxolan-2-ylmethoxy)methyl]-4-phenylbenzene-1,3-diol]
≤ 50 | COC(=O)CCc1c(Br)c(O)cc(O)c1-c1ccccc1 [Compound 87, Methyl 3-(2-bromo-3,5-dihydroxy-6-phenylphenyl)propanoate]
≤ 50 | COc1ccccc1N1CCN(C(=O)Cc2c(Br)c(O)cc(O)c2-c2ccccc2)CC1 [Compound 88, 2-(2-Bromo-3,5-dihydroxy-6-phenylphenyl)-1-[4-(2-methoxyphenyl)piperazin-1-yl]ethanone]
≤ 50 | CN(CCc1ccccn1)C(=O)Cc1c(Br)c(O)cc(O)c1-c1ccccc1 [Compound 89, 2-(2-Bromo-3,5-dihydroxy-6-phenylphenyl)-N-methyl-N-[2-(pyridin-2-yl)ethyl]acetamide]
≤ 50 | N#Cc1cccnc1N1CCN(C(=O)Cc2c(Br)c(O)cc(O)c2-c2ccccc2)CC1 [Compound 90, 2-(2-Bromo-3,5-dihydroxy-6-phenylphenyl)-1-[4-(3-cyanopyridin-2-yl)piperazin-1-yl]ethanone]
≤ 50 | O=C(Cc1c(Br)c(O)cc(O)c1-c1ccccc1)N1CCN(C(=O)c2ccco2)CC1 [Compound 91, 2-(2-Bromo-3,5-dihydroxy-6-phenylphenyl)-1-[4-(2-furoyl)piperazin-1-yl]ethanone]
≤ 50 | COCCc1c(CC(C)=O)c(O)cc(O)c1-c1ccccc1 [Compound 94, 1-[2,4-Dihydroxy-6-(2-methoxyethyl)-5-phenylphenyl]propanone]
